Measurements reported in publication PMC8119466, “A screen of FDA-approved drugs identifies inhibitors of protein tyrosine phosphatase 4A3 (PTP4A3 or PRL-3)” (Scientific Reports, 2021).
Where a name gives a salt, the structure may show the parent alone. Read-outs that look alike come from different tables or passages of the source.

Assays:
Type in all cases: biochemical
recombinant PRL-1 = target: T1, recombinant PRL-1 (Homo sapiens, UniProt Q93096); test: In vitro phosphatase assay (DiFMUP hydrolysis), PRL-1; further: test concentration or dose not given here
T1 construct: 6xHis (N, cleaved yes); made in house; host or cells: E. coli One Shot BL21 Star
T1 sequence (Q93096 1-173): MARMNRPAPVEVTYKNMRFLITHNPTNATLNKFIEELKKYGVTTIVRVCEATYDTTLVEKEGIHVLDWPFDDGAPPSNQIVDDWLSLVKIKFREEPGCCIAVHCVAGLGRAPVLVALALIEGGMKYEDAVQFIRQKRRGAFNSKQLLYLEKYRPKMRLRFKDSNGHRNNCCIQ

recombinant PRL-2 = target: T2, recombinant PRL-2 (Homo sapiens, UniProt Q12974); test: In vitro phosphatase assay (DiFMUP hydrolysis), PRL-2;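 further: PRL-2 activity read as DiFMUP hydrolysis after 20 min at room temperature with drug, enzyme first pre-reduced at 4 °C for 20 min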
T2 construct: 6xHis (N, cleaved yes); made in house; host or cells: E. coli One Shot BL21 Star
T2 sequence (Q12974 1-167): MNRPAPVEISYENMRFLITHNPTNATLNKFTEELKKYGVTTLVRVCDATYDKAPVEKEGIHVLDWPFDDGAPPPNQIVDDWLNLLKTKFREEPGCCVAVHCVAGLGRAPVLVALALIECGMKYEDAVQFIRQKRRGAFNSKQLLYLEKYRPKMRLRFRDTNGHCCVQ

recombinant PRL-3 = target: T3, recombinant PRL-3 (Homo sapiens, UniProt O75365); test: In vitro phosphatase assay (DiFMUP hydrolysis), PRL-3; further: test concentration or dose not given here
T3 construct: 6xHis (N, cleaved yes); made in house; host or cells: E. coli One Shot BL21 Star

[1] = FDA-approved drug screen, compared to DMSO

T3 sequence (O75365 whole entry): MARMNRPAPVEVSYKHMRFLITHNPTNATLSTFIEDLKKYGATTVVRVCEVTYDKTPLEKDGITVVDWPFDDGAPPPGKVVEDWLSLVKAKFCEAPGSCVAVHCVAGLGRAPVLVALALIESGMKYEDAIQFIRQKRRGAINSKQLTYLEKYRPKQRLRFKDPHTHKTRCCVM

Compound: CCn1cc(C(=O)O)c(=O)c2cc(F)c(N3CCNCC3)cc21 [Norfloxacin]
- % Phosphatase Activity (compared to DMSO) PRL-1 (recombinant PRL-1; [1]): 131%
- % Phosphatase Activity (compared to DMSO) PRL-2 (recombinant PRL-2; [1]): 130%
- % Phosphatase Activity (compared to DMSO) PRL-3 (recombinant PRL-3; [1]): 111%

Compound: COc1ccc2c(c1OC)C(=O)O[C@@H]2[C@H]1c2c(cc3c(c2OC)OCO3)CCN1C [Noscapine HCl]
- % Phosphatase Activity (compared to DMSO) PRL-1 (recombinant PRL-1; [1]): 92%
- % Phosphatase Activity (compared to DMSO) PRL-2 (recombinant PRL-2; [1]): 116%
- % Phosphatase Activity (compared to DMSO) PRL-3 (recombinant PRL-3; [1]): 103%

Compound: CO[C@@H]1[C@@H](OC(N)=O)[C@@H](O)[C@H](Oc2ccc3c(O)c(NC(=O)c4ccc(O)c(CC=C(C)C)c4)c(=O)oc3c2C)OC1(C)C [Novobiocin Sodium]
- % Phosphatase Activity (compared to DMSO) PRL-1 (recombinant PRL-1; [1]): 94%
- % Phosphatase Activity (compared to DMSO) PRL-2 (recombinant PRL-2; [1]): 87%
- % Phosphatase Activity (compared to DMSO) PRL-3 (recombinant PRL-3; [1]): 70%

Compound: C[C@@H]1[C@H](O)[C@@H](C)/C=C/C=C/CC/C=C/C=C/C=C/C=C/[C@H](O[C@H]2O[C@@H](C)[C@H](O)[C@@H](N)[C@H]2O)C[C@@H]2O[C@](O)(C[C@@H](O)[C@H](O)CC[C@@H](O)C[C@@H](O)C[C@@H](O)CC(=O)O[C@H]1C)C[C@H](O)[C@H]2C(=O)O [Nystatin (Fungicidin)]
- % Phosphatase Activity (compared to DMSO) PRL-1 (recombinant PRL-1; [1]): 79%
- % Phosphatase Activity (compared to DMSO) PRL-2 (recombinant PRL-2; [1]): 87%
- % Phosphatase Activity (compared to DMSO) PRL-3 (recombinant PRL-3; [1]): 81%

Compound: C[C@]1(O)C[C@@H](c2nc(-c3ccc4ccc(-c5ccccc5)nc4c3)c3c(N)nccn32)C1 [OSI-906 (Linsitinib)]
- % Phosphatase Activity (compared to DMSO) PRL-1 (recombinant PRL-1; [1]): 79%
- % Phosphatase Activity (compared to DMSO) PRL-2 (recombinant PRL-2; [1]): 96%
- % Phosphatase Activity (compared to DMSO) PRL-3 (recombinant PRL-3; [1]): 77%

Compound: CC[C@H]1[C@@H](O)[C@@H]2[C@H](CC[C@]3(C)[C@@H]([C@H](C)CCC(=O)O)CC[C@@H]23)[C@@]2(C)CC[C@@H](O)C[C@@H]12 [Obeticholic Acid]
- % Phosphatase Activity (compared to DMSO) PRL-1 (recombinant PRL-1; [1]): 86%
- % Phosphatase Activity (compared to DMSO) PRL-2 (recombinant PRL-2; [1]): 72%
- % Phosphatase Activity (compared to DMSO) PRL-3 (recombinant PRL-3; [1]): 90%

Compound: CNS(=O)(=O)C[C@H]1CC[C@H](N(C)c2ncnc3[nH]ccc23)CC1 [Oclacitinib]
- % Phosphatase Activity (compared to DMSO) PRL-1 (recombinant PRL-1; [1]): 98%
- % Phosphatase Activity (compared to DMSO) PRL-2 (recombinant PRL-2; [1]): 81%
- % Phosphatase Activity (compared to DMSO) PRL-3 (recombinant PRL-3; [1]): 80%

Compound: C[C@@H](O)[C@@H]1NC(=O)[C@H](CCCCN)NC(=O)[C@@H](Cc2c[nH]c3ccccc23)NC(=O)[C@H](Cc2ccccc2)NC(=O)[C@@H](NC(=O)[C@H](N)Cc2ccccc2)CSSC[C@@H](C(=O)N[C@H](CO)[C@@H](C)O)NC1=O [Octreotide Acetate]
- % Phosphatase Activity (compared to DMSO) PRL-1 (recombinant PRL-1; [1]): 99%
- % Phosphatase Activity (compared to DMSO) PRL-2 (recombinant PRL-2; [1]): 90%
- % Phosphatase Activity (compared to DMSO) PRL-3 (recombinant PRL-3; [1]): 93%

Compound: CC1COc2c(N3CCN(C)CC3)c(F)cc3c(=O)c(C(=O)O)cn1c23 (stereo not drawn) [Ofloxacin]
- % Phosphatase Activity (compared to DMSO) PRL-1 (recombinant PRL-1; [1]): 301%
- % Phosphatase Activity (compared to DMSO) PRL-2 (recombinant PRL-2; [1]): 271%
- % Phosphatase Activity (compared to DMSO) PRL-3 (recombinant PRL-3; [1]): 134%

Compound: Cc1cc2c(s1)Nc1ccccc1N=C2N1CCN(C)CC1 [Olanzapine]
- % Phosphatase Activity (compared to DMSO) PRL-1 (recombinant PRL-1; [1]): 99%
- % Phosphatase Activity (compared to DMSO) PRL-2 (recombinant PRL-2; [1]): 97%
- % Phosphatase Activity (compared to DMSO) PRL-3 (recombinant PRL-3; [1]): 80%

Compound: O=C(c1cc(Cc2n[nH]c(=O)c3ccccc23)ccc1F)N1CCN(C(=O)C2CC2)CC1 [Olaparib (AZD2281, Ku-0059436)]
- % Phosphatase Activity (compared to DMSO) PRL-1 (recombinant PRL-1; [1]): 88%
- % Phosphatase Activity (compared to DMSO) PRL-2 (recombinant PRL-2; [1]): 101%
- % Phosphatase Activity (compared to DMSO) PRL-3 (recombinant PRL-3; [1]): 91%

Compound: CCCc1nc(C(C)(C)O)c(C(=O)OCc2oc(=O)oc2C)n1Cc1ccc(-c2ccccc2-c2nnn[nH]2)cc1 [Olmesartan Medoxomil]
- % Phosphatase Activity (compared to DMSO) PRL-1 (recombinant PRL-1; [1]): 97%
- % Phosphatase Activity (compared to DMSO) PRL-2 (recombinant PRL-2; [1]): 93%
- % Phosphatase Activity (compared to DMSO) PRL-3 (recombinant PRL-3; [1]): 76%

Compound: C=CC(=O)Nc1cccc(Oc2nc(Nc3ccc(N4CCN(C)CC4)cc3)nc3ccsc23)c1 [Olmutinib (HM61713, BI 1482694)]
- % Phosphatase Activity (compared to DMSO) PRL-1 (recombinant PRL-1; [1]): 90%
- % Phosphatase Activity (compared to DMSO) PRL-2 (recombinant PRL-2; [1]): 87%
- % Phosphatase Activity (compared to DMSO) PRL-3 (recombinant PRL-3; [1]): 94%

Compound: CN(C)CC/C=C1/c2ccccc2COc2ccc(CC(=O)O)cc21 [Olopatadine HCl]
- % Phosphatase Activity (compared to DMSO) PRL-1 (recombinant PRL-1; [1]): 116%
- % Phosphatase Activity (compared to DMSO) PRL-2 (recombinant PRL-2; [1]): 121%
- % Phosphatase Activity (compared to DMSO) PRL-3 (recombinant PRL-3; [1]): 74%

Compound: O=C(O)c1cc(/N=N/c2ccc(O)c(C(=O)O)c2)ccc1O [Olsalazine Sodium]
- % Phosphatase Activity (compared to DMSO) PRL-1 (recombinant PRL-1; [1]): 59%
- % Phosphatase Activity (compared to DMSO) PRL-2 (recombinant PRL-2; [1]): 53%
- % Phosphatase Activity (compared to DMSO) PRL-3 (recombinant PRL-3; [1]): 61%

Compound: Cc1c(-c2cnccn2)ssc1=S [Oltipraz]
- % Phosphatase Activity (compared to DMSO) PRL-1 (recombinant PRL-1): 90%
- % Phosphatase Activity (compared to DMSO) PRL-2 (recombinant PRL-2): 73%
- % Phosphatase Activity (compared to DMSO) PRL-3 (recombinant PRL-3): 76%

Compound: COc1ccc2[nH]c([S+]([O-])Cc3ncc(C)c(OC)c3C)nc2c1 (stereo not drawn) [Omeprazole]
- % Phosphatase Activity (compared to DMSO) PRL-1 (recombinant PRL-1; [1]): 89%
- % Phosphatase Activity (compared to DMSO) PRL-2 (recombinant PRL-2; [1]): 96%
- % Phosphatase Activity (compared to DMSO) PRL-3 (recombinant PRL-3; [1]): 54%

Compound: Cc1nccn1CC1CCc2c(c3ccccc3n2C)C1=O.Cl (stereo not drawn) [Ondansetron HCl]
- % Phosphatase Activity (compared to DMSO) PRL-1 (recombinant PRL-1; [1]): 103%
- % Phosphatase Activity (compared to DMSO) PRL-2 (recombinant PRL-2; [1]): 108%
- % Phosphatase Activity (compared to DMSO) PRL-3 (recombinant PRL-3; [1]): 96%

Compound: CCCCCCCCCCC[C@@H](C[C@@H]1OC(=O)[C@H]1CCCCCC)OC(=O)[C@H](CC(C)C)NC=O [Orlistat]
- % Phosphatase Activity (compared to DMSO) PRL-1 (recombinant PRL-1; [1]): 113%
- % Phosphatase Activity (compared to DMSO) PRL-2 (recombinant PRL-2; [1]): 91%
- % Phosphatase Activity (compared to DMSO) PRL-3 (recombinant PRL-3; [1]): 79%

Compound: Cc1ncc([N+](=O)[O-])n1CC(O)CCl (stereo not drawn) [Ornidazole]
- % Phosphatase Activity (compared to DMSO) PRL-1 (recombinant PRL-1; [1]): 104%
- % Phosphatase Activity (compared to DMSO) PRL-2 (recombinant PRL-2; [1]): 102%
- % Phosphatase Activity (compared to DMSO) PRL-3 (recombinant PRL-3; [1]): 84%

Compound: O=C(O)c1cc(=O)[nH]c(=O)[nH]1.O=C(O)c1cc(=O)[nH]c(=O)[nH]1 [Orotic acid (6-Carboxyuracil)]
- % Phosphatase Activity (compared to DMSO) PRL-1 (recombinant PRL-1; [1]): 106%
- % Phosphatase Activity (compared to DMSO) PRL-2 (recombinant PRL-2; [1]): 109%
- % Phosphatase Activity (compared to DMSO) PRL-3 (recombinant PRL-3; [1]): 95%

Compound: CCOC(=O)C1=C[C@@H](OC(CC)CC)[C@H](NC(C)=O)[C@@H](N)C1 [Oseltamivir Phosphate]
- % Phosphatase Activity (compared to DMSO) PRL-1 (recombinant PRL-1; [1]): 91%
- % Phosphatase Activity (compared to DMSO) PRL-2 (recombinant PRL-2; [1]): 102%
- % Phosphatase Activity (compared to DMSO) PRL-3 (recombinant PRL-3; [1]): 94%

Compound: OCCOc1ccc(/C(=C(/CCCl)c2ccccc2)c2ccccc2)cc1 [Ospemifene]
- % Phosphatase Activity (compared to DMSO) PRL-1 (recombinant PRL-1): 96%
- % Phosphatase Activity (compared to DMSO) PRL-2 (recombinant PRL-2): 109%
- % Phosphatase Activity (compared to DMSO) PRL-3 (recombinant PRL-3): 81%

Compound: CCNC1(C(N)=O)CCN(c2ncnc3c2nc(-c2ccccc2Cl)n3-c2ccc(Cl)cc2)CC1.Cl [Otenabant (CP-945598) HCl]
- % Phosphatase Activity (compared to DMSO) PRL-1 (recombinant PRL-1; [1]): 96%
- % Phosphatase Activity (compared to DMSO) PRL-2 (recombinant PRL-2; [1]): 78%
- % Phosphatase Activity (compared to DMSO) PRL-3 (recombinant PRL-3; [1]): 97%

Compound: CCCCCCCCOc1ccccc1C(=O)Nc1ccc(C(=O)OCC[N+](C)(CC)CC)cc1 [Otilonium Bromide]
- % Phosphatase Activity (compared to DMSO) PRL-1 (recombinant PRL-1; [1]): 102%
- % Phosphatase Activity (compared to DMSO) PRL-2 (recombinant PRL-2; [1]): 105%
- % Phosphatase Activity (compared to DMSO) PRL-3 (recombinant PRL-3; [1]): 111%

Compound: Cc1onc(-c2ccccc2)c1C(=O)N[C@@H]1C(=O)N2[C@@H]1SC(C)(C)[C@@H]2C(=O)[O-].O.[Na+] [Oxacillin sodium monohydrate]
- % Phosphatase Activity (compared to DMSO) PRL-1 (recombinant PRL-1; [1]): 98%
- % Phosphatase Activity (compared to DMSO) PRL-2 (recombinant PRL-2; [1]): 90%
- % Phosphatase Activity (compared to DMSO) PRL-3 (recombinant PRL-3; [1]): 83%

Compound: O=C(O)C(=O)O.[NH-][C@@H]1CCCC[C@H]1[NH-].[Pt+2] [Oxaliplatin]
- % Phosphatase Activity (compared to DMSO) PRL-1 (recombinant PRL-1; [1]): 92%
- % Phosphatase Activity (compared to DMSO) PRL-2 (recombinant PRL-2; [1]): 97%
- % Phosphatase Activity (compared to DMSO) PRL-3 (recombinant PRL-3; [1]): 76%

Compound: O=C(O)CCc1nc(-c2ccccc2)c(-c2ccccc2)o1 [Oxaprozin]
- % Phosphatase Activity (compared to DMSO) PRL-1 (recombinant PRL-1; [1]): 96%
- % Phosphatase Activity (compared to DMSO) PRL-2 (recombinant PRL-2; [1]): 106%
- % Phosphatase Activity (compared to DMSO) PRL-3 (recombinant PRL-3; [1]): 71%
